No end group written: not given here. *: point of attachment. FITC = O=C1OC2(c3ccc(O)cc3Oc3cc(O)ccc32)c2ccc(NC(=S)*)cc21
B1: Gabpα protein (SPR analyte) (natural protein, UniProt Q00422 1-454, looked up)
chain: MTKREAEELIEIEIDGTEKAECTEESIVEQTYTPAECVSQAIDINEPIGNLKKLLEPRLQCSLDAHEICLQDIQLDPDRSLFDQGVKTDGTVQLSVQVISYQGMEPKLNILEIVKTAETVEVVIDPDAHHAEAEAHLVEEAQVITLDGTKHITTISDETSEQVTRWAAALEGYRKEQERLGIPYDPIHWSTDQVLHWVVWVMKEFSMTDIDLTTLNISGRELCSLNQEDFFQRVPRGEILWSHLELLRKYVLASQEQQMNEIVTIDQPVQIIPASVPPATPTTIKVINSSAKAAKVQRSPRISGEDRSSPGNRTGNNGQIQLWQFLLELLTDKDARDCISWVGDEGEFKLNQPELVAQKWGQRKNKPTMNYEKLSRALRYYYDGDMICKVQGKRFVYKFVCDLKTLIGYSAAELNRLVIECEQKKLARMQLHGIAQPVTAVALAATSLQADKEI
notes: May be the Cusabio GST-Gabpα of the pull-down

Key:
iBAT‐SVF cells = test: Immunofluorescence, nuclear localization of FITC-GPCBi in iBAT-SVF cells; assay type: cell-based, C57BL/6 mice; settings: FITC‐GPCBi 5 µM, first 2 days of adipogenic differentiation; DAPI (Figure 4d)
Protocol: Interscapular BAT‐SVF cells were obtained from eight‐week‐old male C57BL/6 mice. Briefly, BAT was excised, washed in PBS, minced, and digested at 37 °C for 40 min in Hanks solution containing type II collagenase (Sigma, Cat# C‐6885) and 4% bovine serum albumin (BSA). The tissue homogenates were filtered through a 70 µm cell strainer and centrifuged at 1000 rpm for 5 min. The cell pellet was resuspended in DMEM supplemented with 10% FBS (Sigma–Aldrich) and 1% penicillin/streptomycin (P/S) at 37 °C with 5% CO2. The next day, BAT‐SVF cells were immortalized with the SV40 large T antigen according to a published protocol.^[ [32] ^] For iBAT‐SVF cell differentiation, confluent SVF cells were induced to differentiate with medium containing 0.5 mM isobutylmethylxanthine (Sigma, Cat# I‐5879), 125 µM indomethacin (Sigma, Cat# I‐7378), 2 µg mL^−1 dexamethasone (Sigma, Cat# D‐1756), 5 µg mL^−1 insulin (Solarbio, Cat# I‐8040), 1 nM triiodo‐L‐thyronine (Sigma, Cat# T‐2877), and 1 µM rosiglitazone (Cayman, Cat# 71740‐100). […]
Differentiated iBAT‐SVF cells were fixed with 4% paraformaldehyde for 20 min at room temperature and then rinsed three times with PBS. […] The cells were subsequently washed three times with PBS and incubated with a fluorescence‐conjugated secondary antibody (ABclonal, Wuhan, China, Cat# AS053; AS008, 1:200 dilution) for 1 h at room temperature. […]

Eno1 promoter = test: Luciferase reporter assay, Eno1-Luc activated by Gabpα and Pparγ/Rxrα; assay type: cell-based, human; settings: HEK293T cells, T0070907 10 µM, n = 3 (Figure 3o)
Protocol: HEK293T cells were transfected with 100 ng of Pparγ and 100 ng of Rxrα or empty vector together with 100 ng of Gabpα plasmid or the C‐terminal truncation mutants and 200 ng of Eno1 luciferase reporter plasmid in 24‐well plates via Lipofectamine reagent (Yeasen, Shanghai, China, Cat# 40802ES03). For the experiments with the peptides GPCBi or T0070907, the additional peptides GPCBi (3 µM) or T0070907 (10 µM) were added to the HEK293T cells one day after the plasmid complex was transfected. After 48 h of transfection, luciferase activity was measured via the Dual‐Luciferase Reporter Assay System (Vazyme Biotech., Nanjing, China; Cat# DL101‐01). Firefly luciferase reporter gene measurements were normalized to Renilla luciferase activity.

BAT from wild‐type mice = test: H&E staining and Ucp1 immunostaining of BAT; assay type: in vivo, wild‐type C57BL/6J mice; settings: GPCBi 5.5 mg kg^−1 in BAT for 7 days, then sodium lactate 2 g kg^−1 d^−1 i.p. daily for 3 days following 10 °C for 2 days; Ucp1 immunostaining (Figure 5g-i)
Protocol: The mouse experiments were approved by the Institutional Animal Care and Use Committee of the Institute of Model Animals of Tongji Hospital, Huazhong University of Science and Technology, and were performed in compliance with all relevant ethical regulations (approval number: TJH‐202110044). Unless otherwise noted, the mice were housed in a pathogen‐free and climate‐controlled environment (22–25 °C, 40‐60% humidity) and were given free access to food and water on a 12 h light/dark cycle. Wild‐type C57BL/6J mice were obtained from Beijing Huafukang Bioscience Co., Ltd. (Beijing, China). Gabpa ^flox/flox , Adipoq^Cre , and Ucp1^Cre mice were purchased from Cyagen Biosciences, Inc. (Guangzhou, China). For GPCBi treatment, wild‐type mice were orthotopically injected GPCBi (FITC‐[…]; 5.5 mg kg^−1) or scramble peptide (FITC‐[…]; 5.5 mg kg^−1) into the BAT at room temperature for one week. […] For cold exposure, the mice were caged individually and exposed to a temperature of 10 or 4 °C. The mice were euthanized by CO2 inhalation. For studies with specific diets, five‐week‐old male Gabpα ^Adipo KI mice and their respective littermate control mice were fed a HFD (D12492, Research Diets; 60 kcal% fat, 20 kcal% carbohydrates, and 20 kcal% protein; Medicience Ltd., Jiangsu, China) at ambient temperature. The food was changed every week. Body weight was measured every week, and tissue weights were measured at the time of euthanasia.
For haematoxylin and eosin (H&E) staining, adipose tissues and the liver were fixed in 4% paraformaldehyde overnight at 4 °C and then dehydrated in 70% ethanol. The tissues were subsequently embedded in paraffin, sectioned at a thickness of 5 µm, and stained with H&E or immunostained with a Ucp1 antibody (Abcam, UK, Cat# ab234430, 1:500 dilution) following the standard protocol. For Oil Red O staining, frozen liver sections were stained with Oil Red O solution for 10 min and then counterstained with haematoxylin for 20 s. Images of the tissue samples were captured via an Olympus BX53 Orthomicroscope. […]

[1] = system: differentiated iBAT‐SVF cells; test: Relative mRNA and protein levels in differentiated iBAT-SVF cells; assay type: cell-based, C57BL/6 mice; settings: GPCBi 5 µM, first 2 days of differentiation, and Enoblock 10 µM for 24 h (Figure 5p)
Protocol: Interscapular BAT‐SVF cells were obtained from eight‐week‐old male C57BL/6 mice. […] The tissue homogenates were filtered through a 70 µm cell strainer and centrifuged at 1000 rpm for 5 min. The cell pellet was resuspended in DMEM supplemented with 10% FBS (Sigma–Aldrich) and 1% penicillin/streptomycin (P/S) at 37 °C with 5% CO2. The next day, BAT‐SVF cells were immortalized with the SV40 large T antigen according to a published protocol.^[ [32] ^] […] After 48 h, the induction medium was replaced with a maintenance cocktail (5 µg mL^−1 insulin, 1 nM triiodo‐L‐thyronine, and 1 µM rosiglitazone) until 6 to 8 days after the induction of differentiation.
Reverse transcription of cDNA was completed via the use of 1 µg of RNA with HiScript II Q RT SuperMix for real‐time quantitative PCR (qPCR) (Vazyme Biotech, Nanjing, China, Cat# R222) according to the provided protocols. qPCR was performed with a real‐time PCR system on a QuantStudio1 (Applied Biosystems) using Taq Pro Universal SYBR qPCR Master Mix (Vazyme Biotech., Nanjing, China, Cat# Q712‐02). Relative transcript levels were calculated via the comparative C T method; 36b4 was used as the internal control for cells, whereas Hprt was used as the internal control for tissues. The primer sequences are listed in Table S1 (Supporting Information). The mRNAs from the BAT of control and Gabpα ^Ucp1 KO mice were extracted and subjected to commercial RNA‐seq (BGI Genomics Co., Ltd.) for further DEG and KEGG pathway enrichment analysis. In detail, RNA quality was examined with Fragment (Agilent). High‐quality RNA (RIN > 8.0) was used to library construction. RNA‐seq was performed at BGI Genomics (China) using the Illumina NovaSeq 6000 platform. Clean reads were aligned to the mouse reference genome (GRCm39) using Bowtie2, and transcript quantification was performed with RSEM. […] The RNA‐seq data generated in this study have been deposited in the National Center for Biotechnology Information Sequence Read Archive database under accession code PRJNA1358056.
Cells and tissues were lysed in RIPA lysis buffer (Beyotime, Shanghai, China, Cat# P0013B) containing a protease inhibitor cocktail (MedChem Express, NJ, USA, Cat# HY‐K0010) according to the manufacturer's protocol. Equal amounts of protein were separated on SDS‒PAGE gels and transferred to PVDF membranes (Millipore). The PVDF membranes were blocked in 5% skim milk for 1 h at room temperature and then incubated with primary antibody overnight at 4 °C. The membranes were washed three times with TBST and then incubated with HRP‐conjugated secondary antibodies for 1 h at room temperature. After washing three times, the Western blots were imaged via an enhanced chemiluminescence system.

[2] = system: differentiated iBAT‐SVF cells; test: Lactate levels in differentiated iBAT-SVF cells; assay type: cell-based, C57BL/6 mice; settings: GPCBi 5 µM, first 2 days of differentiation, and Enoblock 10 µM for 24 h (Figure 5o)
Protocol: Interscapular BAT‐SVF cells were obtained from eight‐week‐old male C57BL/6 mice. Briefly, BAT was excised, washed in PBS, minced, and digested at 37 °C for 40 min in Hanks solution containing type II collagenase (Sigma, Cat# C‐6885) and 4% bovine serum albumin (BSA). The tissue homogenates were filtered through a 70 µm cell strainer and centrifuged at 1000 rpm for 5 min. The cell pellet was resuspended in DMEM supplemented with 10% FBS (Sigma–Aldrich) and 1% penicillin/streptomycin (P/S) at 37 °C with 5% CO2. The next day, BAT‐SVF cells were immortalized with the SV40 large T antigen according to a published protocol.^[ [32] ^] For iBAT‐SVF cell differentiation, confluent SVF cells were induced to differentiate with medium containing 0.5 mM isobutylmethylxanthine (Sigma, Cat# I‐5879), 125 µM indomethacin (Sigma, Cat# I‐7378), 2 µg mL^−1 dexamethasone (Sigma, Cat# D‐1756), 5 µg mL^−1 insulin (Solarbio, Cat# I‐8040), 1 nM triiodo‐L‐thyronine (Sigma, Cat# T‐2877), and 1 µM rosiglitazone (Cayman, Cat# 71740‐100). After 48 h, the induction medium was replaced with a maintenance cocktail (5 µg mL^−1 insulin, 1 nM triiodo‐L‐thyronine, and 1 µM rosiglitazone) until 6 to 8 days after the induction of differentiation.
Brown fat was homogenized with lysis buffer, ultrasonographically treated on ice at 300 W (on for 3 s, off for 7 s) for 2 min, and then centrifuged at 4 °C at 12 000 × g for 10 min. […] All protocols were followed in accordance with the manufacturer's guidelines.

[3] = target: T1, Pparγ protein (SPR ligand) (UniProt P37238 1-505); test: SPR; Biacore T200, CM5 chip; Pparγ immobilised covalently; different concentrations of Gabpα injected; 120 s association, 200 s dissociation; settings: both partners purified
T1 construct: May be the Cusabio His-Pparγ of the pull-down
T1 sequence (looked up): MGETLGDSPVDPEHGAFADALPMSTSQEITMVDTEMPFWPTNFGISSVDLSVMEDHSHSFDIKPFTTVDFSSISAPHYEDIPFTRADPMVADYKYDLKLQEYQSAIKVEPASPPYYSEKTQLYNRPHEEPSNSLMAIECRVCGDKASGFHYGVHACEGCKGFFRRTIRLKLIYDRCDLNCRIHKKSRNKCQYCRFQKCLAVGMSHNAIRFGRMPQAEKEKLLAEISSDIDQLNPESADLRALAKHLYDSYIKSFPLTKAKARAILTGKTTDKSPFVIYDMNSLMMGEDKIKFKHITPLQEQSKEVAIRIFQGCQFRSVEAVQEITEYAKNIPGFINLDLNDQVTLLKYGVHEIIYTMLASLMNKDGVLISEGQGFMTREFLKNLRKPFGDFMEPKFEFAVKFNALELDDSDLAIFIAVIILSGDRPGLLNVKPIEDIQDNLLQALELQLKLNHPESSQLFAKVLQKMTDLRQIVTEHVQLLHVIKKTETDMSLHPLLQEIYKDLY

[4] = target: B1; test: not stated; direct binding of GPCBi to Gabpα, dose-dependent (Figure S4d); method and who was immobilised not told; settings: both partners purified

“FITC‐tagged GPCBi: FITC‐tagged GPCBi ({FITC}-YGRKKRRQRRRRRTIRLKLIYDRCDLNCRIHKKSRNK; cysteine pairing not given here)” was tested, and the cellular localization (iBAT‐SVF cells) was “nuclear localization”.

With O=C(Nc1ccncc1)c1cc([N+](=O)[O-])ccc1Cl [T0070907, reference compound] the “Eno1 promoter activity induced by Gabpα” value (Eno1 promoter) was “inhibited”.

With CC(O)C(=O)[O-].[Na+] (stereo not shown) [lactate, sodium lactate, reference compound] the “Ucp1 expression suppressed by GPCBi (rescue)” value (BAT from wild‐type mice) was “rescued”.

In the case of NCCOCCOCCNC(=O)Cc1ccc(Nc2nc(NCc3ccc(F)cc3)nc(NCC3CCCCC3)n2)cc1 [Enoblock, reference compound], the “ucp1 expression when Enoblock further added to GPCBi-treated brown adipocytes” value [1] is reported as “no change” and the “GPCBi-induced reduction of lactate level in presence of Enoblock” value [2] is reported as “not observed”.

B1 was tested, and the Kd [3] was 5.34 nM.

B2: Gabpα-Pparγ complex binding inhibitor (GPCBi) (peptide)
peptide: {FITC}-YGRKKRRQRRRRRTIRLKLIYDRCDLNCRIHKKSRNK
modifications: cysteine pairing not given here
notes: the numbers fit the 505-residue Pparγ2; also called FITC-GPCBi; peptide GPCBi; source: synthetic peptide
B2 was tested, and the Kd [4] was 7.03 nM.
